# Source: PubChem BioAssay AID2060504 (Molecular Pharmacology Branch, DTP, NCI, 2025)
# Values joined by “and” are separate entries in the source; they are usually repeats but may differ in a detail not shown here. Equal values may be shown once.
# System: 636577-100-R-J1-PDC complex spheroid viability
# Experiment: Anticancer human tumor 636577-100-R-J1-PDC patient-derived endometrial adenocarcinoma cell line growth inhibition [GQUAD]
# Conditions: for viability, T/C: stronger effect = lower value
# Source text: DNA G-quadruplex Stabilizer Agents in Combinations in Complex Spheroids
# A high-throughput screen of multi-cell type tumor spheroids was designed to identify active combinations of DNA G-quadruplex stabilizer agents and targeted small molecules. Complex spheroids include a stromal component modeled by human endothelial cells (HUVEC) and fibroblasts modeled by human mesenchymal stem cells (MSCs). The concentration ranges selected for each drug and investigational agent were based upon clinically achievable concentrations if the clinical Cmax of the agent was known.
# Compounds. The drugs and investigational agents: pidnarulex (CX-5461; NSC782164), APTO-253 (NSC789042), BRACO-19 (NSC847499), peposertib (NSC802822), ceralasertib (NSC780249), elimusertib (NSC800525), camonsertib (NSC841442), AZD-1390 (NSC803789), olaparib (NSC753686), talazoparib (NSC767125), ART-558 (NSC835418), sotorasib (NSC818433), MRTX-1133 (NSC836407), SN-38 (NSC673596), topotecan (NSC609699), etoposide (NSC141540), doxorubicin (NSC123127), gemcitabine (NSC613327), 5-fluorouracil (NSC19893), paclitaxel (NSC125973), vemurafenib (NSC761431), panobinostat (NSC761190), R-306465 (JNJ-16241199; NSC773264), adavosertib (NSC754352), TP-3654 (NSC805149), carboplatin (NSC241240), KSQ-4279 (NSC840948), and staurosporine (NSC755774) were obtained from the National Cancer Institute (NCI) Developmental Therapeutics Program Chemical Repository (34). The FDA-approved anticancer drug set is available from the NCI Developmental Therapeutics Program. […] The stock solutions were prepared in dimethyl sulfoxide (DMSO, Sigma-Aldrich, St. Louis, MO, cat. D2650) at 800-fold the tested concentration and stored at -70 degrees C prior to their use. All drugs and investigational agents were tested over a range starting from a high concentration at or near the clinical Cmax and decreasing in half-log increments. If the clinical Cmax for an agent had not been determined, the highest concentration tested was 10 microM.
# 2.3 Cell Culture. All cells were maintained in an incubator at 37 degrees C and 5% CO2 with 95% humidity. The PDC lines were cultured according to standard operating procedures established by the NCI PDMR. All PDCs were thawed and cultured in Matrigel-coated flasks prepared with a working solution of 1X Ham's F-12 nutrient mix, without supplementation (Invitrogen, cat. 11765054), 100 U/mL penicillin-streptomycin (Invitrogen, cat. 15140122), and 2.5% Matrigel (Corning Inc., cat. 354248) for the first three passages. The 857933-349-R-J2-PDC line was cultured in 6C/Colon 1B media, which includes advanced DMEM/F-12 (Thermo Fisher Scientific, cat. 12634028), 10 mM HEPES (Thermo Fisher Scientific, cat. 15630080), 1X GlutaMAX supplement (Thermo Fisher Scientific, cat. 35050061), 0.1 mg/mL primocin (InvivoGen, cat. ant-pm-2), 10% defined fetal bovine serum, heat inactivated (HyClone Laboratories Inc., cat. SH30070.03HI), 50% L-WRN conditioned media (ATCC, cat. CRL-3276), 1.25 mM N-Acetyl-L-cysteine (Sigma-Aldrich, cat. A9165), 10 mM nicotinamide (Sigma-Aldrich, cat. N0636), 1X B-27 supplement (Thermo Fisher Scientific, cat. 17504044), 1X N-2 supplement (Thermo Fisher Scientific, cat. 17502048), 10 microM Y-27632 dihydrochloride (Tocris Bioscience, cat. 1254), and 50 ng/mL human EGF recombinant protein (Thermo Fisher Scientific, cat. PHG0311). The 485176-168-R4-J1-PDC line was cultured in Panc media, which includes all 6C/Colon 1B media components plus 100 ng/mL human FGF-10 (Thermo Fisher Scientific, cat. 100-26), 500 nM SB-431542 (Selleckchem, cat. S1067), and gastrin (Tocris, cat. 3006).
# […]
# 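Also: viability read after seven days of drug exposure.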
# 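For viability, T/C in this document: luminescence signal used as a proxy for viable cells; 100% = DMSO vehicle control wells.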
smiles,measurement,setting,value
Cn1ncnc1[C@H]1c2n[nH]c(=O)c3cc(F)cc(c23)N[C@@H]1c1ccc(F)cc1 + Cc1cnc(CNC(=O)c2c(=O)c3ccc(N4CCCN(C)CC4)nc3n3c2sc2ccccc23)cn1,IC50,"curve of first compound, second compound 0.0316 µM",< 0.999 nM
same,IC50,"curve of first compound, second compound 0.1 µM",< 0.999 nM
same,IC50,"curve of first compound, second compound 0.316 µM",< 0.999 nM
same,IC50,"curve of first compound, second compound 1 µM",< 0.999 nM
same,IC50,"curve of first compound, second compound 3.16 µM",< 0.999 nM
same,IC50,"curve of first compound, second compound 10 µM",< 0.999 nM
same,"viability, T/C","second compound 0.0316 µM, first compound 0.000999 µM",47.9%
same,"viability, T/C","second compound 0.0316 µM, first compound 0.00316 µM",25.6%
same,"viability, T/C","second compound 0.0316 µM, first compound 0.00999 µM",39.7%
same,"viability, T/C","second compound 0.0316 µM, first compound 0.0316 µM",24%
same,"viability, T/C","second compound 0.0316 µM, first compound 0.0999 µM",24.7%
same,"viability, T/C","second compound 0.0316 µM, first compound 0.316 µM",24.9%
same,"viability, T/C","second compound 0.1 µM, first compound 0.000999 µM",26.9%
same,"viability, T/C","second compound 0.1 µM, first compound 0.00316 µM",26.9%
same,"viability, T/C","second compound 0.1 µM, first compound 0.00999 µM",26.6%
same,"viability, T/C","second compound 0.1 µM, first compound 0.0316 µM",20.6%
same,"viability, T/C","second compound 0.1 µM, first compound 0.0999 µM",24.1%
same,"viability, T/C","second compound 0.1 µM, first compound 0.316 µM",19.9%
same,"viability, T/C","second compound 0.316 µM, first compound 0.000999 µM",21%
same,"viability, T/C","second compound 0.316 µM, first compound 0.00316 µM",23.2%
same,"viability, T/C","second compound 0.316 µM, first compound 0.00999 µM",21.1%
same,"viability, T/C","second compound 0.316 µM, first compound 0.0316 µM",22.9%
same,"viability, T/C","second compound 0.316 µM, first compound 0.0999 µM",21.8%
same,"viability, T/C","second compound 0.316 µM, first compound 0.316 µM",19.2%
same,"viability, T/C","second compound 1 µM, first compound 0.000999 µM",20.1%
same,"viability, T/C","second compound 1 µM, first compound 0.00316 µM",19%
same,"viability, T/C","second compound 1 µM, first compound 0.00999 µM",19.8%
same,"viability, T/C","second compound 1 µM, first compound 0.0316 µM",21%
same,"viability, T/C","second compound 1 µM, first compound 0.0999 µM",19.4%
same,"viability, T/C","second compound 1 µM, first compound 0.316 µM",20.4%
same,"viability, T/C","second compound 3.16 µM, first compound 0.000999 µM",19%
same,"viability, T/C","second compound 3.16 µM, first compound 0.00316 µM",18.6%
same,"viability, T/C","second compound 3.16 µM, first compound 0.00999 µM",21.6%
same,"viability, T/C","second compound 3.16 µM, first compound 0.0316 µM",19.7%
same,"viability, T/C","second compound 3.16 µM, first compound 0.0999 µM",21.7%
same,"viability, T/C","second compound 3.16 µM, first compound 0.316 µM",19.2%
same,"viability, T/C","second compound 10 µM, first compound 0.000999 µM",15.2%
same,"viability, T/C","second compound 10 µM, first compound 0.00316 µM",18.5%
same,"viability, T/C","second compound 10 µM, first compound 0.00999 µM",21.9%
same,"viability, T/C","second compound 10 µM, first compound 0.0316 µM",19.4%
same,"viability, T/C","second compound 10 µM, first compound 0.0999 µM",21.9%
same,"viability, T/C","second compound 10 µM, first compound 0.316 µM",19.2%
O=c1[nH]cc(F)c(=O)[nH]1,"viability, T/C",compound 0.0316 µM,102% and 99.7%
same,"viability, T/C",compound 0.1 µM,85% and 68.9%
same,"viability, T/C",compound 0.316 µM,101% and 89.5%
same,"viability, T/C",compound 1 µM,76.2% and 91.4%
same,"viability, T/C",compound 3.16 µM,44.2% and 71%
same,"viability, T/C",compound 10 µM,24.7% and 28.6%
same,IC50,curve of compound,2530 nM and 5590 nM
